Source: the supplement of paper PMC10627819

Key:
S. aureus Newman [1] = test: fitness (endpoint OD595 vs no drug) (fraction); higher = more growth
In short: (§1)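 Bacterial growth was followed in 384-well plates seeded at OD595 0.01, with 30 µl per well, or 55 µl for S. pneumoniae, in TSB, LB Lennox or CY at 37 °C. OD595 was read every 30 min for 14 h, and each reading had the first reading subtracted as background. Fitness is the background-corrected optical density at entry into stationary phase divided by the robust mean of the no-drug control wells. This ratio is capped at 1.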

S. pneumoniae D39V [2] = test: as above
In short: as §1

B. subtilis 168 = test: Bliss interaction score (quartile over a dose matrix) (fitness difference); higher = more antagonism (negative = synergy)
In short: (§2)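 Fitness here means normalised growth, inferred for single drugs from the combination data. Growth was OD595 at entry into stationary phase, divided by the plate's robust no-drug mean and capped at 1. The Bliss score is observed minus expected fitness, with the expectation being the product, and its quartiles span technical, biological and donor/recipient replicates.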

S. aureus DSM 20231 = test: as above
In short: as §2

S. aureus Newman [3] = test: as above
In short: as §2

S. pneumoniae D39V [4] = test: as above
In short: as §2
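Throughout, for Bliss interaction score (quartile over a dose matrix): first quartile when negative (synergy) and third quartile when positive (antagonism).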

Cc1ncc([N+](=O)[O-])n1CCO [Metronidazole] + C/C(=C\C(=O)OCCCCCCCCC(=O)O)C[C@@H]1OC[C@H](C[C@@H]2O[C@H]2[C@@H](C)[C@H](C)O)[C@@H](O)[C@H]1O [Pseudomonic acid]
fitness, S. aureus Newman [1], one replicate
Settings	first compound 0.625 µg/mL	first compound 1.25 µg/mL	first compound 2.5 µg/mL
partner 0.0313 µg/mL	0.0517	0.0718	0.0759
partner 0.0625 µg/mL	0.0386	0.0347	0.0304
partner 0.125 µg/mL	0.0386	0.0514	0.0492

fitness, S. pneumoniae D39V [2]
Settings	first compound 1.073 µg/mL	first compound 1.25 µg/mL	first compound 2.145 µg/mL	first compound 2.5 µg/mL	first compound 4.29 µg/mL	first compound 5 µg/mL
partner 0.03 µg/mL	0.903	0.932	0.859	0.96	0.877	0.92
partner 0.06 µg/mL	–	0.816	–	0.829	0.81	0.816
partner 0.12 µg/mL	0.529	0.57	0.632	0.596	0.575	0.588

Settings	Bliss interaction score
B. subtilis 168	-0.0197
S. aureus DSM 20231	0.0111
S. aureus Newman [3]	0.0128
S. pneumoniae D39V [4]	0.0684

CN(C)c1cc(NC(=O)CNC(C)(C)C)c(O)c2c1C[C@H]1C[C@H]3[C@H](N(C)C)C(O)=C(C(N)=O)C(=O)[C@@]3(O)C(O)=C1C2=O [Tigecycline] + CN[C@H](CC(C)C)C(=O)N[C@H]1C(=O)N[C@@H](CC(N)=O)C(=O)N[C@H]2C(=O)N[C@H]3C(=O)N[C@H](C(=O)N[C@H](C(=O)O)c4cc(O)cc(O)c4-c4cc3ccc4O)[C@H](O)c3ccc(c(Cl)c3)Oc3cc2cc(c3O[C@@H]2O[C@H](CO)[C@@H](O)[C@H](O)[C@H]2O[C@H]2C[C@](C)(N)[C@H](O)[C@H](C)O2)Oc2ccc(cc2Cl)[C@H]1O [Vancomycin]
Settings	fitness
S. aureus Newman [1], first compound 0.039 µg/mL, partner 0.1875 µg/mL	0.974
S. aureus Newman [1], first compound 0.039 µg/mL, partner 0.375 µg/mL	0.998
S. aureus Newman [1], first compound 0.039 µg/mL, partner 0.75 µg/mL	≥ 1
S. aureus Newman [1], first compound 0.078 µg/mL, partner 0.1875 µg/mL	≥ 1
S. aureus Newman [1], first compound 0.078 µg/mL, partner 0.375 µg/mL	0.99
S. aureus Newman [1], first compound 0.078 µg/mL, partner 0.75 µg/mL	0.987
S. aureus Newman [1], first compound 0.156 µg/mL, partner 0.1875 µg/mL	0.992
S. aureus Newman [1], first compound 0.156 µg/mL, partner 0.375 µg/mL	≥ 1
S. aureus Newman [1], first compound 0.156 µg/mL, partner 0.75 µg/mL	0.987
S. pneumoniae D39V [2], first compound 0.65 µg/mL, partner 0.03125 µg/mL	0.967
S. pneumoniae D39V [2], first compound 0.65 µg/mL, partner 0.0625 µg/mL	0.939
S. pneumoniae D39V [2], first compound 0.65 µg/mL, partner 0.125 µg/mL	0.871
S. pneumoniae D39V [2], first compound 0.65 µg/mL, partner 0.5 µg/mL	0.0606
S. pneumoniae D39V [2], first compound 1.3 µg/mL, partner 0.03125 µg/mL	0.989
S. pneumoniae D39V [2], first compound 1.3 µg/mL, partner 0.0625 µg/mL	0.937
S. pneumoniae D39V [2], first compound 1.3 µg/mL, partner 0.125 µg/mL	0.882
S. pneumoniae D39V [2], first compound 1.3 µg/mL, partner 0.5 µg/mL	0.0528
S. pneumoniae D39V [2], first compound 2.6 µg/mL, partner 0.03125 µg/mL	0.961
S. pneumoniae D39V [2], first compound 2.6 µg/mL, partner 0.0625 µg/mL	0.962
S. pneumoniae D39V [2], first compound 2.6 µg/mL, partner 0.125 µg/mL	0.918
S. pneumoniae D39V [2], first compound 2.6 µg/mL, partner 0.25 µg/mL	0.543
S. pneumoniae D39V [2], first compound 2.6 µg/mL, partner 0.5 µg/mL	0.0988

Settings	Bliss interaction score
B. subtilis 168	0.0787
S. aureus DSM 20231	0.0923
S. aureus Newman [3]	0.0428
S. pneumoniae D39V [4]	0.0783
